Experimental data reported in patent US20210038577A1, “THIOREDOXIN REDUCTASE INHIBITORS FOR USE IN THE TREATMENT OF CANCER” (Cinda Pharma AB, priority 2018, published 2021).

System: 4T1-luc2 murine tumor cells
Assay: 4T1-luc2 tumors in mammary fat pad of immunocompetent BALB/c mice
Assay type: in vivo
Conditions: 5 mg/kg 5/2 for 15 days, bioluminescence
Description: Female BALB/c immunocompetent mice were implanted with 1×10^5 4T1-luc2 murine tumor cells into the mammary fat pad. Upon growth of the tumors between 60-90 mm^3 the animals were selected for imaging. Mice were randomized and enrolled for treatment based on imaging flux values. Mice were treated once daily with 5 mg/kg of either OT-1096 or vehicle control using a 5/2 (five days on, two days off) dosing protocol. Upon days 1, 8, and 15 whole body imaging was performed on the mice to follow tumor cell luminescence. Analysis consists of primary tumor luminescence in mice. Each mouse was normalized to its own baseline luminescence from day 1. […] Data is represented as mean±SEM. Statistical significance (p<0.05) was determined using a Mann-Whitney test. The relative luminescence flux for mice treated with OT-1096 was significant compared to vehicle at day 15.
Athymic nude mice were inoculated orthotopically with 5×10^6 MDA-MB-231 breast cancer cells into the mammary fat pad, and randomized for treatment when tumors reached an average volume of 80-120 mm^3 (N=12 in each group). […] Xenograft tumor volume was assessed using caliper measurements for 25 days. […] Xenograft tumor volume was assessed using caliper measurements for 25 days. […] Statistical significance (p<0.05) was determined using a Two-way repeated measures ANOVA with Sidak's multiple comparison test. […]

For `CCCCCCCCS(=O)(=O)c1nc(OC)ccc1[N+](=O)[O-]` [OT-1096, 6-methoxy-3-nitro-2-(octylsulfonyl)pyridine], the “% TGI” value was 54%.
